In US20120214822A1 (ASTRAZENECA AB, priority 2007, published 2012):
Counter-ions that a name gives are not always drawn.

target: human active recombinant p38α-6His tagged (Homo sapiens, UniProt Q16539); experiment: P38 Alpha Enzyme Assay (AlphaScreen, biotinylated-ATF2 substrate); assay type: biochemical; conditions: p38 alpha enzyme inhibition; means of replicate determinations; 4 h pre-incubation at 37° C.; SD of assay 0.2-0.3 log units;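 also: 0.5 nM final p38α, reaction started with ATP and run 45 min at 37 °C, phospho-ATF2 read by antibody-based AlphaScreen, background wells quenched with EDTA before ATP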
Sequence (Q16539 whole entry): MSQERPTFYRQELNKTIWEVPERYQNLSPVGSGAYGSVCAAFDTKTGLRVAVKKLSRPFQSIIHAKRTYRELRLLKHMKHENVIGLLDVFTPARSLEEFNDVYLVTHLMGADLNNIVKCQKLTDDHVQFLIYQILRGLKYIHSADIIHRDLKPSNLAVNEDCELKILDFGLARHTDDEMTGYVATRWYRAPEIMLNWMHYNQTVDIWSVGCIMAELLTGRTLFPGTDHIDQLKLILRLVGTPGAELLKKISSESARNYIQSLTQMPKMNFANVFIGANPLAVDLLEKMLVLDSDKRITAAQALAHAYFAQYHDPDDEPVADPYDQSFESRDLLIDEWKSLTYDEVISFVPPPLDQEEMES

SMILES | pIC50
Cc1ccc(C(=O)NC2CC2)cc1-n1ccnc(SCc2ccccc2)c1=O [Example 118] | 7.3
Cc1c(F)cc(C(=O)NC2CC2)cc1-n1ccnc(NC2(c3ccccc3OCCNC(C)C)CC2)c1=O [Example 264, N-Cyclopropyl-3-fluoro-4-methyl-5-[3-[[1-[2-[2-[(1-methylethyl)amino]ethoxy]phenyl]cyclopropyl]amino]-2-oxo-1(2H)-pyrazinyl]-benzamide] | 10.1
Cc1c(F)cc(C(=O)NC2CC2)cc1-n1ccnc(NC(C)(C)c2ccccc2OCCNCC(C)(C)O)c1=O [Example 257, N-Cyclopropyl-3-fluoro-5-[3-[[1-[2-[2-[(2-hydroxy-2-methylpropyl)amino]ethoxy]phenyl]-1-methylethyl]amino]-2-oxo-1(2H)-pyrazinyl]-4-methyl-benzamide] | 10.3
CONC(=O)c1ccc(C)c(-n2ccnc(N[C@@H](c3cccc4ccccc34)[C@@H](C)CN3CCCC3)c2=O)c1 [Example 158, N-Methoxy-4-methyl-3-[3-[[(1R,2S)-2-methyl-1-(1-naphthalenyl)-3-(1-pyrrolidinyl)propyl]amino]-2-oxo-1(2H)-pyrazinyl]-benzamide] | 9
Cc1ccc(C(=O)NC2CC2)cc1-n1ccnc(N[C@@H](c2ccccc2)[C@@H](C)CN2CCNC[C@H]2C)c1=O [Example 187, N-Cyclopropyl-4-methyl-3-[3-[[(1R,2S)-2-methyl-3-[(2R)-2-methyl-1-piperazinyl]-1-phenylpropyl]amino]-2-oxo-1(2H)-pyrazinyl]-benzamide] | 9.8
CCONC(=O)c1ccc(C)c(-n2ccnc(NC(C)(C)c3ccccc3OCCNC)c2=O)c1 [Example 222, N-Ethoxy-4-methyl-3-[3-[[1-methyl-1-[2-[2-(methylamino)ethoxy]phenyl]ethyl]amino]-2-oxo-1(2H)-pyrazinyl]-benzamide] | 9
Cc1ccc(C(=O)NC2CC2)cc1-n1ccnc(NC2(c3cc(F)ccc3OCCNCCO)CC2)c1=O [Example 279, N-Cyclopropyl-3-[3-[[1-[5-fluoro-2-[2-[(2-hydroxyethyl)amino]ethoxy]phenyl]cyclopropyl]amino]-2-oxo-1(2H)-pyrazinyl]-4-methyl-benzamide] | 10.1
COC[C@H]1CCCN1C[C@@H](C)[C@@H](Nc1nccn(-c2cc(C(=O)NC3CC3)ccc2C)c1=O)c1ccccc1 [Example 148, N-Cyclopropyl-3-[3-[[(1R,2R)-3-[(2R)-2-(methoxymethyl)-1-pyrrolidinyl]-2-methyl-1-phenylpropyl]amino]-2-oxo-1(2H)-pyrazinyl]-4-methyl-benzamide] | 8.1
Cc1ccc(C(=O)NC2CC2)cc1-n1ccnc(NC2(c3ccccc3OCCN[C@H](C)CO)CC2)c1=O [Example 249, N-Cyclopropyl-3-[3-[[1-[2-[2-[[(1R)-2-hydroxy-1-methylethyl]amino]ethoxy]phenyl]cyclopropyl]amino]-2-oxo-1(2H)-pyrazinyl]-4-methyl-benzamide] | 9.9
Cc1ccc(C(=O)NC2CC2)cc1-n1ccnc(NC2(c3ccccc3OCCN3CC[C@@H](O)C3)CC2)c1=O [Example 236, N-Cyclopropyl-3-[3-[[1-[2-[2-[(3R)-3-hydroxy-1-pyrrolidinyl]ethoxy]phenyl]cyclopropyl]amino]-2-oxo-1(2H)-pyrazinyl]-4-methyl-benzamide] | 10
CNCCOc1ccccc1C1CCCN1c1nccn(-c2cc(C(=O)NC3CC3)ccc2C)c1=O (stereo not shown) [Example 327, N-Cyclopropyl-4-methyl-3-[3-(2-{2-[2-(methylamino)ethoxy]phenyl}pyrrolidin-1-yl)-2-oxopyrazin-1(2H)-yl]benzamide Trifluoroacetate salt] | 8
Cc1ccc(C(=O)NC2CC2)cc1-n1ccnc(N2CCCC(c3ccccc3)C2)c1=O (stereo not shown) [Example 60, N-Cyclopropyl-4-methyl-3-[2-oxo-3-(3-phenyl-1-piperidinyl)-1(2H)-pyrazinyl]-benzamide] | 7.3
Cc1ccc(C(=O)NC2CC2)cc1-n1ccnc(NCc2cccc(F)c2)c1=O [Example 22, N-Cyclopropyl-3-[3-[[(3-fluorophenyl)methyl]amino]-2-oxo-1(2H)-pyrazinyl]-4-methyl-benzamide] | 7
Cc1ccc(C(=O)NC2CC2)cc1-n1ccnc(N[C@@H](c2ccccc2)[C@@H](C)CNCC(C)(C)C)c1=O [Example 157, N-Cyclopropyl-3-[3-[[(1R,2S)-3-[(2,2-dimethylpropyl)amino]-2-methyl-1-phenylpropyl]amino]-2-oxo-1(2H)-pyrazinyl]-4-methyl-benzamide] | 9
CNCCOc1ccccc1C(C)(C)Nc1nccn(-c2cc(C(=O)NCCF)ccc2C)c1=O [Example 225, N-(2-Fluoroethyl)-4-methyl-3-[3-[[1-methyl-1-[2-[2-(methylamino)ethoxy]phenyl]ethyl]amino]-2-oxo-1(2H)-pyrazinyl]-benzamide] | 8.2
CCCNCCOc1ccccc1C1(Nc2nccn(-c3cc(C(=O)NC4CC4)ccc3C)c2=O)CC1 [Example 298, N-Cyclopropyl-4-methyl-3-{2-oxo-3-[(1-{2-[2-(propylamino)ethoxy]phenyl}cyclopropyl)amino]pyrazin-1(2H)-yl}benzamide] | 10.2

SMILES | pIC50
Cc1c(F)cc(C(=O)NC2CC2)cc1-n1ccnc(NC2(c3ccccc3OCCN(C)CCO)CC2)c1=O [Example 315, N-Cyclopropyl-3-fluoro-5-[3-{[1-(2-{2-[(2-hydroxyethyl)(methyl)amino]ethoxy}phenyl)cyclopropyl]amino}-2-oxopyrazin-1(2H)-yl]-4-methylbenzamide] | 10
Cc1ccc(C(=O)NC2CC2)cc1-n1ccnc(NC2Cc3ccccc3C2)c1=O [Example 64, N-Cyclopropyl-3-[3-[(2,3-dihydro-1H-inden-2-yl)amino]-2-oxo-1(2H)-pyrazinyl]-4-methyl-benzamide] | 6.8
Cc1ccc(C(=O)NC2CC2)cc1-n1ccnc(N[C@@H](c2ccccc2)[C@@H](C)CNC(C)(C)CO)c1=O [Example 193, N-Cyclopropyl-3-[3-[[(1R,2S)-3-[(2-hydroxy-1,1-dimethylethyl)amino]-2-methyl-1-phenylpropyl]amino]-2-oxo-1(2H)-pyrazinyl]-4-methyl-benzamide] | 9.3
CC(C)(Nc1nccn(-c2cc(C(=O)NC3CC3)ccc2Cl)c1=O)c1ccccc1OCCNCCO [Example 331, 4-Chloro-N-cyclopropyl-3-[3-{[1-(2-{2-[(2-hydroxyethyl)amino]ethoxy}phenyl)-1-methylethyl]amino}-2-oxopyrazin-1(2H)-yl]benzamide] | 9.6
Cc1ccc(C(=O)NC2CC2)cc1-n1ccnc(N[C@@H](c2ccccc2)[C@@H](C)CN(C)CCN(C)C)c1=O [Example 156, N-Cyclopropyl-3-[3-[[(1R,2S)-3-[[2-(dimethylamino)ethyl]methylamino]-2-methyl-1-phenylpropyl]amino]-2-oxo-1(2H)-pyrazinyl]-4-methyl-benzamide] | 8.9
Cc1ccc(C(=O)NC2CC2)cc1-n1ccnc(NCC2CCOCC2)c1=O [Example 90, N-Cyclopropyl-4-methyl-3-[2-oxo-3-[[(tetrahydro-2H-pyran-4-yl)methyl]amino]-1(2H)-pyrazinyl]-benzamide] | 6.4
Cc1ccc(C(=O)NC2CC2)cc1-n1cc(Cl)nc(N2CCN(C)CC2)c1=O [Example 107, 3-[5-Chloro-3-(4-methyl-1-piperazinyl)-2-oxo-1(2H)-pyrazinyl]-N-cyclopropyl-4-methyl-benzamide] | 6.1
COCCNCCOc1ccccc1C1(Nc2nccn(-c3cc(C(=O)NC4CC4)cc(F)c3C)c2=O)CC1 [Example 261, N-Cyclopropyl-3-fluoro-5-[3-[[1-[2-[2-[(2-methoxyethyl)amino]ethoxy]phenyl]cyclopropyl]amino]-2-oxo-1(2H)-pyrazinyl]-4-methyl-benzamide] | 10.5
COCCNCCOc1ccccc1C(C)(C)Nc1nccn(-c2cc(C(=O)NC3CC3)cc(F)c2C)c1=O [Example 255, N-Cyclopropyl-3-fluoro-5-[3-[[1-[2-[2-[(2-methoxyethyl)amino]ethoxy]phenyl]-1-methylethyl]amino]-2-oxo-1(2H)-pyrazinyl]-4-methyl-benzamide] | 10.2
Cc1c(F)cc(C(=O)NC2CC2)cc1-n1ccnc(NC2(c3ccccc3OCCNCCO)CC2)c1=O [Example 260, N-Cyclopropyl-3-fluoro-5-[3-[[1-[2-[2-[(2-hydroxyethyl)amino]ethoxy]phenyl]cyclopropyl]amino]-2-oxo-1(2H)-pyrazinyl]-4-methyl-benzamide] | 10.3
CNCCOc1ccccc1C(C)(C)Nc1nccn(-c2cc(C(=O)NCCO)ccc2C)c1=O [Example 228, N-(2-Hydroxyethyl)-4-methyl-3-[3-[[1-methyl-1-[2-[2-(methylamino)ethoxy]phenyl]ethyl]amino]-2-oxo-1(2H)-pyrazinyl]-benzamide] | 6.8
Cc1c(F)cc(C(=O)NC2CC2)cc1-n1ccnc(NC(C)(C)c2ccccc2OCCN)c1=O [Example 311, 3-[3-({1-[2-(2-Aminoethoxy)phenyl]-1-methylethyl}amino)-2-oxopyrazin-1(2H)-yl]-N-cyclopropyl-5-fluoro-4-methylbenzamide] | 10.1
Cc1ccc(C(=O)NC2CC2)cc1-n1ccnc(NCc2cccc(C)c2C)c1=O [Example 92, N-Cyclopropyl-3-[3-[[(2,3-dimethylphenyl)methyl]amino]-2-oxo-1(2H)-pyrazinyl]-4-methyl-benzamide] | 7.6
Cc1ccc(C(=O)NC2CC2)cc1-n1ccnc(N[C@@H](c2ccccc2)[C@@H](C)CN2CCC(C(F)(F)F)CC2)c1=O [Example 177, N-Cyclopropyl-4-methyl-3-[3-[[(1R,2S)-2-methyl-1-phenyl-3-[4-(trifluoromethyl)-1-piperidinyl]propyl]amino]-2-oxo-1(2H)-pyrazinyl]-benzamide] | 9
CCNC[C@@H](O)COc1ccccc1C1(Nc2nccn(-c3cc(C(=O)NC4CC4)ccc3C)c2=O)CC1 [Example 300, N-Cyclopropyl-3-[3-{[1-(2-{[(2R)-3-(ethylamino)-2-hydroxypropyl]oxy}phenyl)cyclopropyl]amino}-2-oxopyrazin-1(2H)-yl]-4-methylbenzamide] | 10.3
